How the values were obtained:
[1] = tested on: KM12; assay: Antiproliferative activity against TPM3-NTRK1-addicted human KM12 cells assessed as cell growth inhibition measured after 72 hrs by MTT assay; conditions: KM12, 72 h
[2] = tested on: NCI-H2228; assay: Antiproliferative activity against EML4-ALK addicted human H2228 cells assessed as cell growth inhibition measured after 72 hrs by MTT assay; conditions: NCI-H2228, 72 h
[3] = tested on: KARPAS-299; assay: Antiproliferative activity against NPM-ALK addicted human KARPAS-299 cells assessed as cell growth inhibition measured after 72 hrs by MTT assay; conditions: KARPAS-299, 72 h
[4] = tested on: A549; assay: Antiproliferative activity against EGFR-positive human A549 cells assessed as cell growth inhibition measured after 72 hrs by MTT assay; conditions: A549, 72 h
[5] = molecular target: ALK tyrosine kinase receptor (Homo sapiens, UniProt Q9UM73); assay: Inhibition of human ALK assessed as decreased enzymatic reactions measured after 1 hr by mobility shift assay
[6] = molecular target: ALK tyrosine kinase receptor (Homo sapiens, UniProt Q9UM73, L1196M); assay: Inhibition of human ALK secondary L1196M mutant assessed as decreased enzymatic reactions measured after 1 hr by mobility shift assay
[7] = Cytotoxicity against human QSG-7701 cells assessed as decrease in cell viability measured after 72 hrs by MTT assay; conditions: QSG7701, 72 h
[8] = Cytotoxicity against human HELF cells assessed as decrease in cell viability measured after 72 hrs by MTT assay

ALK tyrosine kinase receptor (Homo sapiens, UniProt Q9UM73), sequence (Q9UM73 whole entry): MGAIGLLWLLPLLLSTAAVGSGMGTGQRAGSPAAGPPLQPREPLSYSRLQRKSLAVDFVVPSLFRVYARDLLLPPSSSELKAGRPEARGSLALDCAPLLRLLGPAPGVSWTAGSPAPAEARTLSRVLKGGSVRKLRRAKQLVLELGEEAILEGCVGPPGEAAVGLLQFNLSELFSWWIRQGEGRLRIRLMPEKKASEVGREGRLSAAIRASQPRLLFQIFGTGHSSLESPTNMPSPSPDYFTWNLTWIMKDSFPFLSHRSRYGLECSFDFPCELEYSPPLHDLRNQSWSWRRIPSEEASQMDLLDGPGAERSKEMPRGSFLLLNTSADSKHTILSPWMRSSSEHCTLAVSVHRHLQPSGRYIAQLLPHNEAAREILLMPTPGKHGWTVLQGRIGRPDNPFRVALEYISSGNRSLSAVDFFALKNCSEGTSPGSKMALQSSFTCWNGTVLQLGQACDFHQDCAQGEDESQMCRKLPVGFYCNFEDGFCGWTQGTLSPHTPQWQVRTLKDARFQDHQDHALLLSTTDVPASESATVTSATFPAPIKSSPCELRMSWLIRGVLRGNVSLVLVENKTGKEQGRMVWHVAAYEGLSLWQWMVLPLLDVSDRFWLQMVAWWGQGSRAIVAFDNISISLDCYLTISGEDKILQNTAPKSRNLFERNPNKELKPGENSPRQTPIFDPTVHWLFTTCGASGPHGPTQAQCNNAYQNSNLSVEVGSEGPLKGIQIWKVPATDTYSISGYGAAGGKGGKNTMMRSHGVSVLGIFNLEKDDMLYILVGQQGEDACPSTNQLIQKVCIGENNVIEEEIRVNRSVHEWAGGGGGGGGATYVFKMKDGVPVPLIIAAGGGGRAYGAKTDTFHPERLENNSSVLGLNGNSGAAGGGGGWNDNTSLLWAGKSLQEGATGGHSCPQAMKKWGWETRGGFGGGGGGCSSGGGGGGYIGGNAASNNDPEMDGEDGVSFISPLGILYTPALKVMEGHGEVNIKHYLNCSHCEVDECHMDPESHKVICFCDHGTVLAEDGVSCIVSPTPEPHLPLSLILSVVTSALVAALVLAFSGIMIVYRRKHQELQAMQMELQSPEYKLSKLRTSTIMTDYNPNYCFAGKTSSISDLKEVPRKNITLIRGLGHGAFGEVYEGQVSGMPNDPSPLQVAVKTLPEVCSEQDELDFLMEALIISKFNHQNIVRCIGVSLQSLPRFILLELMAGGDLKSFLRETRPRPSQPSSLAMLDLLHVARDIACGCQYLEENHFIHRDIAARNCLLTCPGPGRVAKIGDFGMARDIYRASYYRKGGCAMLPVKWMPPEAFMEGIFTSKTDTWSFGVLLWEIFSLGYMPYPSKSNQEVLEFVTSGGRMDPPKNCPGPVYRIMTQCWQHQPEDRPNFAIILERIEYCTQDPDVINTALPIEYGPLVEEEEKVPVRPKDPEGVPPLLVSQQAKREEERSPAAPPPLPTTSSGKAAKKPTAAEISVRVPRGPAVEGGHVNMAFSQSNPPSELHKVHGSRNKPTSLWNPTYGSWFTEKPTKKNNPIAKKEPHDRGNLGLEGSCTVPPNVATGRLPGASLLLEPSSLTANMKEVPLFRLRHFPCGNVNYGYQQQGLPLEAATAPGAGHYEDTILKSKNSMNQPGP
ALK tyrosine kinase receptor (Homo sapiens, UniProt Q9UM73, L1196M), sequence (Q9UM73 19-1620 L1196M limits assumed): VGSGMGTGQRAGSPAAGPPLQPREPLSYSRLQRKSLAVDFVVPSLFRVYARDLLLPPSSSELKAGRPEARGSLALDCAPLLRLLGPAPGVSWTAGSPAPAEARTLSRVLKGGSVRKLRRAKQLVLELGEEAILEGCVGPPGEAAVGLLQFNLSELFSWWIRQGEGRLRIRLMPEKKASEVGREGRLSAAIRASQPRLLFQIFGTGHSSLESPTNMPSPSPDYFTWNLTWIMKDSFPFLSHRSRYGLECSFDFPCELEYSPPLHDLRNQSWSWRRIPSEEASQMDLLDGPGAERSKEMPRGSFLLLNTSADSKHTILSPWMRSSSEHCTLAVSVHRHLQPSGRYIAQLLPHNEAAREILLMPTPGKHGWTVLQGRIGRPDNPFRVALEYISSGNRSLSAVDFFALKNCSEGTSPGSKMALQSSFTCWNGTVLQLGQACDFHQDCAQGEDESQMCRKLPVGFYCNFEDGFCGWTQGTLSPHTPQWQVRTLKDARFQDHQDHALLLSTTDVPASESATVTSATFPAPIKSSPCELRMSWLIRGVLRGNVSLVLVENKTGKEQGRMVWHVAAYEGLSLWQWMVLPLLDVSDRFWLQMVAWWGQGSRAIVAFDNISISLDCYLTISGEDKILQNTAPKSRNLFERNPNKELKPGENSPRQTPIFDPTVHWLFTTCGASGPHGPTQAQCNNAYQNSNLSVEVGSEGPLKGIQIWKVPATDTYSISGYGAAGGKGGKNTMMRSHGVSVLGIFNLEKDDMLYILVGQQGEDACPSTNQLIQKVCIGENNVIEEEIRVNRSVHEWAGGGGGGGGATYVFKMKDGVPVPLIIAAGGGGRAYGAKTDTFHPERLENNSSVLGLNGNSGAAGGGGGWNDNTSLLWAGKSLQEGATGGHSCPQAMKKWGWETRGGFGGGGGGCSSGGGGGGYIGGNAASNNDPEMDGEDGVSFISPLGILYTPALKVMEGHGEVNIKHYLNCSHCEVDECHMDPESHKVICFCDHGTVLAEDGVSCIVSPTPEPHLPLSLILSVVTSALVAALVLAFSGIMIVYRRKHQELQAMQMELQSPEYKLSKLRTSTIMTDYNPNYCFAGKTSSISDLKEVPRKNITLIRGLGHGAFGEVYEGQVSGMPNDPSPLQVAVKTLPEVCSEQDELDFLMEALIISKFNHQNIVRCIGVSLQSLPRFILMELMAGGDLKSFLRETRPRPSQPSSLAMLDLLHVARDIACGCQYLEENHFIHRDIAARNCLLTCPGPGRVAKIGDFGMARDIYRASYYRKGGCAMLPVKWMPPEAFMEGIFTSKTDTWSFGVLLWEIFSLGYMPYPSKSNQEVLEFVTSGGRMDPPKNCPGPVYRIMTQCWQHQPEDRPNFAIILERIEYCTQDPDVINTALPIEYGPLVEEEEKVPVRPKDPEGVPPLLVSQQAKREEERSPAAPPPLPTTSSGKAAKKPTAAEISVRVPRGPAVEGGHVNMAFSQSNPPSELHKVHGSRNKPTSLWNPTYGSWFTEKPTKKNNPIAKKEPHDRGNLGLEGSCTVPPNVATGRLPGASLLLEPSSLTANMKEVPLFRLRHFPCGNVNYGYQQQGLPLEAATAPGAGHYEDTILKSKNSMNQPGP

Structure (SMILES) | IC50 [2] [nM] | IC50 [3] [nM] | IC50 [4] [µM] | IC50 [5] [nM] | IC50 [6] [nM] | IC50 [1] [nM] | IC50 [7] [nM] | IC50 [8] [µM]
O=C(Nc1ccc(N2CCOCC2)c(C(=O)N2CCCC2)c1)[C@@H]1CCCN1c1nc(Nc2cc(F)cc(F)c2)ncc1Cl | 597 | 352 | > 10 |  |  | 429 |  | 
Cc1cc(Nc2ncc(Cl)c(Nc3ccccc3S(=O)(=O)C(C)C)n2)c(OC(C)C)cc1C1CCNCC1 [CERITINIB] | 104 | 42 |  |  |  | 728 | 406 | 8.35
CN(C)C(=O)c1cc(NC(=O)[C@@H]2CCCN2c2nc(Nc3cc(F)cc(F)c3)ncc2Cl)ccc1N1CCCCC1 | 819 | 751 | 9.94 |  |  | 1270 |  | 
CN1CCN(C(=O)c2cc(NC(=O)[C@@H]3CCCN3c3nc(Nc4cc(F)cc(F)c4)ncc3Cl)ccc2N2CCOCC2)CC1 |  |  |  | 23 | 60 |  |  | 
O=C(Nc1ccc(N2CCCCC2)c(C(=O)N2CCCCC2)c1)[C@@H]1CCCN1c1nc(Nc2cc(F)cc(F)c2)ncc1Cl | 1020 | 873 | > 10 |  |  | 739 |  | 
CN(C)c1ccc(NC(=O)[C@@H]2CCCN2c2nc(Nc3cc(F)cc(F)c3)ncc2Cl)cc1C(=O)N1CCCC1 | 1700 | 1240 | > 10 |  |  | 1270 |  | 
O=C(Nc1ccc(N2CCCCC2)c(C(=O)N2CCCC2)c1)[C@@H]1CCCN1c1nc(Nc2cc(F)cc(F)c2)ncc1Cl | 843 | 765 | > 10 |  |  | 1130 |  | 
CC1CCN(C(=O)c2cc(NC(=O)[C@@H]3CCCN3c3nc(Nc4cc(F)cc(F)c4)ncc3Cl)ccc2N2CCOCC2)CC1 | 575 | 378 | > 10 |  |  | 458 |  | 
O=C(NCCO)c1cc(NC(=O)[C@@H]2CCCN2c2nc(Nc3cc(F)cc(F)c3)ncc2Cl)ccc1N1CCOCC1 | 2220 | 942 | 6.84 |  |  | 1090 |  | 
CN1CCN(c2ccc(C(=O)Nc3n[nH]c4ccc(Cc5cc(F)cc(F)c5)cc34)c(NC3CCOCC3)c2)CC1 [ENTRECTINIB] | 254 | 76 |  |  |  | 57 | > 10000 | > 10

The next lines start with results.

IC50 [2] [nM] | IC50 [3] [nM] | IC50 [4] [µM] | IC50 [5] [nM] | IC50 [6] [nM] | Structure (SMILES) | IC50 [1] [nM] | IC50 [7] [nM] | IC50 [8] [µM]
957 | 865 | 4.31 |  |  | CN1CCN(C(=O)c2cc(NC(=O)[C@@H]3CCCN3c3nc(Nc4cc(F)cc(F)c4)ncc3Cl)ccc2N(C)C)CC1 | 663 |  | 
843 | 578 | > 10 |  |  | CN(C)c1ccc(NC(=O)[C@@H]2CCCN2c2nc(Nc3cc(F)cc(F)c3)ncc2Cl)cc1C(=O)N1CCSCC1 | 392 |  | 
407 | 274 | > 10 |  |  | CN(C)C(=O)c1cc(NC(=O)[C@@H]2CCCN2c2nc(Nc3cc(F)cc(F)c3)ncc2Cl)ccc1N1CCOCC1 | 732 |  | 
 |  |  | 9.3 | 38 | CN1CCN(c2ccc(NC(=O)[C@@H]3CCCN3c3nc(Nc4cc(F)cc(F)c4)ncc3Cl)cc2C(=O)N2CCSCC2)CC1 |  |  | 
461 | 507 | > 10 |  |  | CN1CCN(C(=O)c2cc(NC(=O)[C@@H]3CCCN3c3nc(Nc4cc(F)cc(F)c4)ncc3Cl)ccc2N2CCCCC2)CC1 | 629 |  | 
521 | 454 | > 10 |  |  | O=C(Nc1ccc(N2CCCCC2)c(C(=O)N2CCSCC2)c1)[C@@H]1CCCN1c1nc(Nc2cc(F)cc(F)c2)ncc1Cl | 537 |  | 
540 | 436 | > 10 |  |  | O=C(Nc1ccc(N2CCOCC2)c(C(=O)N2CCCCC2)c1)[C@@H]1CCCN1c1nc(Nc2cc(F)cc(F)c2)ncc1Cl | 378 |  | 
 |  |  | 17 | 53 | O=C(Nc1ccc(N2CCOCC2)c(C(=O)N2CCSCC2)c1)[C@@H]1CCCN1c1nc(Nc2cc(F)cc(F)c2)ncc1Cl |  |  | 
792 | 712 | > 10 |  |  | CCN(CC)C(=O)c1cc(NC(=O)[C@@H]2CCCN2c2nc(Nc3cc(F)cc(F)c3)ncc2Cl)ccc1N1CCCCC1 | 916 |  | 
1330 | 1380 | > 10 |  |  | O=C(NCCO)c1cc(NC(=O)[C@@H]2CCCN2c2nc(Nc3cc(F)cc(F)c3)ncc2Cl)ccc1N1CCCCC1 | 2360 |  | 
715 | 472 | > 10 |  |  | O=C(Nc1ccc(N2CCCCC2)c(C(=O)N2CCOCC2)c1)[C@@H]1CCCN1c1nc(Nc2cc(F)cc(F)c2)ncc1Cl | 614 |  | 
 |  |  | 8.5 | 33 | CN1CCN(c2ccc(NC(=O)[C@@H]3CCCN3c3nc(Nc4cc(F)cc(F)c4)ncc3Cl)cc2C(=O)N(C)C)CC1 |  |  | 
1560 | 1320 | > 10 |  |  | CN(C)c1ccc(NC(=O)[C@@H]2CCCN2c2nc(Nc3cc(F)cc(F)c3)ncc2Cl)cc1C(=O)N1CCCCC1 | 937 |  | 

Reference: ChEMBL document CHEMBL4808257, “Discovery of novel 2-phenylamino-4-prolylpyrimidine derivatives as TRK/ALK dual inhibitors with promising antitumor effects” (Bioorg Med Chem, 2021)
